Results from US20240425499A1, “TYRO3 INHIBITORS” (HALIA THERAPEUTICS, INC., priority 2021, published 2024).

Biological target: recombinant human TYRO3 (Homo sapiens (Human), UniProt Q06418)
Assay: TYRO3 enzymatic assay (radiometric [32P]-ATP, Poly(Glu,Tyr) substrate)
Assay type: biochemical
Settings: recombinant human TYRO3, [32P]-ATP
Procedure: Poly(Glu, Tyr) sodium salt (Glu:Tyr (4:1), quality level 200, molecular weight 5,000-20,000, obtained from Sigma Aldrich, catalogue #P7244, assay concentration 0.20 mg/mL) and recombinant human TYRO3 (obtained from ThermoFisher Scientific, catalogue #PV3828, assay concentration 2 nM) were mixed in assay buffer (20 mM Hepes pH 7.5, 10 mM MgCl2, 1 mM EGTA, 0.02% Brij35, 0.02 mg/ml BSA, 0.1 mM Na3VO4, 2 mM DTT, 1% DMSO, with added MnCl2 at a final concentration of 2 mM). Compounds of interest (in DMSO, serial 3-fold dilution from 10 μM to 0.5 nM) or control (1% DMSO) were dispensed into the kinase reaction mixture by Acoustic technology (Echo550; nanoliter range). After incubation at room temperature for 20 minutes, the kinase reaction was initiated by addition of [^32P]-ATP (Specific activity 10 μCi/μl) and the mixture was incubated at room temperature for 2 hours. The reaction was then stopped by spotting the reaction mixture on strips of phosphocellulose P81 paper. Following washing, the radioactivity of the P81 paper was measured and kinase activity data were expressed as the percent remaining kinase activity in test samples compared to vehicle (dimethyl sulfoxide) reactions. IC50 values and curve fits were obtained using Prism (GraphPad Software).

Chain of recombinant human TYRO3 (Q06418 41-890): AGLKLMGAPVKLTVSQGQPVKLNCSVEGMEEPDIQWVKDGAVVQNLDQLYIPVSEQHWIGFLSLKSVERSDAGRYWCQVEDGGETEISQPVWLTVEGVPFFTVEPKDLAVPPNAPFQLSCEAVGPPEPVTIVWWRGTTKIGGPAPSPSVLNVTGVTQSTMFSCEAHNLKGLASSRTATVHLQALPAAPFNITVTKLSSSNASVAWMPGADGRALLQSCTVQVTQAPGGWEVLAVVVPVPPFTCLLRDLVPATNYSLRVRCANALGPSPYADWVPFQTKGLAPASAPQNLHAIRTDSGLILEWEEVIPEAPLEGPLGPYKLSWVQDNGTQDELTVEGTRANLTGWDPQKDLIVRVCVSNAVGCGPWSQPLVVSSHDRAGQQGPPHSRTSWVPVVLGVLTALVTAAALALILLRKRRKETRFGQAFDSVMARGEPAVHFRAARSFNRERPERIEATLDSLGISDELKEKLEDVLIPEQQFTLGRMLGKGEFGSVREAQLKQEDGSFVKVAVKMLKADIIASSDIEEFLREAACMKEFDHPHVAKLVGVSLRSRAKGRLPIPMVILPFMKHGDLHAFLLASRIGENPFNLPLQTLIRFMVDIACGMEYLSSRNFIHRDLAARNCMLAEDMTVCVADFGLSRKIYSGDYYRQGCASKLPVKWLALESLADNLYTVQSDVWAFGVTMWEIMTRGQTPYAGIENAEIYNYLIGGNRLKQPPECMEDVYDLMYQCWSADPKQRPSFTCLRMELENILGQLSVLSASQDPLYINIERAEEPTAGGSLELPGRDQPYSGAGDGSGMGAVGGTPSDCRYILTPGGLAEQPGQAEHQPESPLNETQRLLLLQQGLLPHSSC

IC50	SMILES
51 to 150 nM	OCc1[nH]c2ncc(-c3ccc(CN4CCCC(O)C4)cc3)cc2c1-c1cccc(F)c1 (single isomer, unassigned; enantiomer 2) [compound 89, 1-(4-(3-(3-fluorophenyl)-2-(hydroxymethyl)-1H-pyrrolo[2,3-b]pyridin-5-yl)benzyl)piperidin-3-ol Enantiomer 2]
51 to 150 nM	OC1CCCN(Cc2ccc(-c3cnc4[nH]cc(-c5ccc(F)nc5)c4c3)cc2)C1 (stereo not drawn) [compound 21, 1-(4-(3-(6-fluoropyridin-3-yl)-1H-pyrrolo[2,3-b]pyridin-5-yl)benzyl)piperidin-3-ol]
151 to 500 nM	CNC1CCN(Cc2ccc(-c3cnc4[nH]cc(-c5ccc(OC)nc5)c4c3)cc2)CC1 [compound 73]
51 to 150 nM	COc1ccc(-c2c[nH]c3ncc(-c4ccc(CN5CCCC(C)(O)C5)cc4)cc23)cn1 (stereo not drawn) [compound 30, 1-(4-(3-(6-methoxypyridin-3-yl)-1H-pyrrolo[2,3-b]pyridin-5-yl)benzyl)-3-methylpiperidin-3-ol]
151 to 500 nM	COc1ccc(-c2c[nH]c3ncc(-c4ccc(CN5CCCC(OC(C)=O)C5)cc4)cc23)cn1 (stereo not drawn) [compound 69, 1-(4-(3-(6-methoxypyridin-3-yl)-1H-pyrrolo[2,3-b]pyridin-5-yl)benzyl)piperidin-3-yl acetate]
151 to 500 nM	CC1(O)CCN(c2ccc(-c3cnc4[nH]cc(-c5ccc6[nH]ccc6c5)c4c3)cc2)CC1 [compound 77, 1-(4-(3-(1H-indol-5-yl)-1H-pyrrolo[2,3-b]pyridin-5-yl)phenyl)-4-methylpiperidin-4-ol]
51 to 150 nM	CC1(O)CCCN(Cc2ccc(-c3cnc4[nH]cc(-c5cccc(F)c5)c4c3)cc2)C1 (stereo not drawn) [compound 5, 1-(4-(3-(3-fluorophenyl)-1H-pyrrolo[2,3-b]pyridin-5-yl)benzyl)-3-methylpiperidin-3-ol]
51 to 150 nM	OC1CCCN(Cc2ccc(-c3cnc4[nH]cc(-c5cccc(C(F)(F)F)c5)c4c3)cc2)C1 (stereo not drawn) [compound 11, 1-(4-(3-(3-(trifluoromethyl)phenyl)-1H-pyrrolo[2,3-b]pyridin-5-yl)benzyl)piperidin-3-ol]
51 to 150 nM	Cc1ccc(-c2c[nH]c3ncc(-c4ccc(CN5CCCC(O)C5)cc4)cc23)cc1 (stereo not drawn) [compound 1, 1-(4-(3-(p-tolyl)-1H-pyrrolo[2,3-b]pyridin-5-yl)benzyl)piperidin-3-ol]
51 to 150 nM	OC1CCCN(Cc2ccc(-c3cnc4[nH]c(Cl)c(-c5cccc(F)c5)c4c3)cc2)C1 (stereo not drawn) [compound 54, 1-(4-(2-chloro-3-(3-fluorophenyl)-1H-pyrrolo[2,3-b]pyridin-5-yl)benzyl)piperidin-3-ol]
151 to 500 nM	OC1CCCN(Cc2ccc(-c3cnc4[nH]cc(-c5ccc(C(F)(F)F)cc5)c4c3)cc2)C1 (stereo not drawn) [compound 10, 1-(4-(3-(4-(trifluoromethyl)phenyl)-1H-pyrrolo[2,3-b]pyridin-5-yl)benzyl)piperidin-3-ol]
51 to 150 nM	COc1ccc(-c2c(C)[nH]c3ncc(-c4ccc(CN5CCCC(O)C5)cc4)cc23)cn1 (stereo not drawn) [compound 62, 1-(4-(3-(6-methoxypyridin-3-yl)-2-methyl-1H-pyrrolo[2,3-b]pyridin-5-yl)benzyl)piperidin-3-ol]
151 to 500 nM	OC1CCCN(Cc2ccc(-c3cnc4[nH]c(Cl)c(-c5cccc(C(F)F)c5)c4c3)cc2)C1 (stereo not drawn) [compound 55, 1-(4-(2-chloro-3-(3-(difluoromethyl)phenyl)-1H-pyrrolo[2,3-b]pyridin-5-yl)benzyl)piperidin-3-ol]
51 to 150 nM	CCN1CCc2cc(-c3c[nH]c4ncc(-c5ccc(CN6CCCC(O)C6)cc5)cc34)ccc2C1 (stereo not drawn) [compound 81, 1-(4-(3-(2-ethyl-1,2,3,4-tetrahydroisoquinolin-6-yl)-1H-pyrrolo[2,3-b]pyridin-5-yl)benzyl)piperidin-3-ol]
51 to 150 nM	COc1ccc(-c2c[nH]c3ncc(-c4ccc(CN5CCC(OC)CC5)cc4)cc23)cn1 [compound 34, 5-(4-((4-methoxypiperidin-1-yl)methyl)phenyl)-3-(6-methoxypyridin-3-yl)-1H-pyrrolo[2,3-b]pyridine]
51 to 150 nM	COc1ccc(-c2c[nH]c3ncc(-c4ccc(CN5CCC(O)C5)cc4)cc23)cn1 (stereo not drawn) [compound 29, 1-(4-(3-(6-methoxypyridin-3-yl)-1H-pyrrolo[2,3-b]pyridin-5-yl)benzyl)pyrrolidin-3-ol]

IC50	SMILES
151 to 500 nM	COc1ccc(-c2c[nH]c3ncc(-c4ccc(CN5CCC6(CC5)CN(C)C6)cc4)cc23)cn1 [compound 42, 7-(4-(3-(6-methoxypyridin-3-yl)-1H-pyrrolo[2,3-b]pyridin-5-yl)benzyl)-2-methyl-2,7-diazaspiro[3.5]nonane]
51 to 150 nM	COCc1[nH]c2ncc(-c3ccc(CN4CCCC(O)C4)cc3)cc2c1-c1ccc(F)nc1 (stereo not drawn) [compound 64, 1-(4-(3-(6-fluoropyridin-3-yl)-2-(methoxymethyl)-1H-pyrrolo[2,3-b]pyridin-5-yl)benzyl)piperidin-3-ol]
51 to 150 nM	COCC1CCCN(Cc2ccc(-c3cnc4[nH]cc(-c5ccc(OC)nc5)c4c3)cc2)C1 (stereo not drawn) [compound 70, 5-(4-((3-(methoxymethyl)piperidin-1-yl)methyl)phenyl)-3-(6-methoxypyridin-3-yl)-1H-pyrrolo[2,3-b]pyridine]
51 to 150 nM	COc1ccc(-c2c[nH]c3ncc(-c4ccc(CN5CCCC(O)C5)cc4)cc23)cn1 (single isomer, unassigned; enantiomer 2) [compound 27, 1-(4-(3-(6-methoxypyridin-3-yl)-1H-pyrrolo[2,3-b]pyridin-5-yl)benzyl)piperidin-3-ol Enantiomer 2]
51 to 150 nM	COc1ccc(-c2c[nH]c3ncc(-c4ccc(CN5CCCC(CO)C5)cc4)cc23)cn1 (stereo not drawn) [compound 32, (1-(4-(3-(6-methoxypyridin-3-yl)-1H-pyrrolo[2,3-b]pyridin-5-yl)benzyl)piperidin-3-yl)methanol]
151 to 500 nM	COc1ccc(-c2c[nH]c3ncc(-c4ccc(CN5CCCC(F)C5)cc4)cc23)cn1 (stereo not drawn) [compound 40, 5-(4-((3-fluoropiperidin-1-yl)methyl)phenyl)-3-(6-methoxypyridin-3-yl)-1H-pyrrolo[2,3-b]pyridine]
51 to 150 nM	OC1CCCN(Cc2ccc(-c3cnc4[nH]c(C(F)F)c(-c5cccc(F)c5)c4c3)cc2)C1 (stereo not drawn) [compound 68, 1-(4-(2-(difluoromethyl)-3-(3-fluorophenyl)-1H-pyrrolo[2,3-b]pyridin-5-yl)benzyl)piperidin-3-ol]
51 to 150 nM	OC1CCCN(Cc2ccc(-c3cnc4[nH]cc(-c5ccc(Cl)cc5)c4c3)cc2)C1 (stereo not drawn) [compound 7, 1-(4-(3-(4-chlorophenyl)-1H-pyrrolo[2,3-b]pyridin-5-yl)benzyl)piperidin-3-ol]
51 to 150 nM	OCc1ccc(-c2c[nH]c3ncc(-c4ccc(CN5CCCC(O)C5)cc4)cc23)cn1 (stereo not drawn) [compound 43, 1-(4-(3-(6-(hydroxymethyl)pyridin-3-yl)-1H-pyrrolo[2,3-b]pyridin-5-yl)benzyl)piperidin-3-ol]
151 to 500 nM	COc1ccc(-c2c[nH]c3ncc(-c4ccc(CN5CCC(N(C)C)CC5)cc4)cc23)cn1 [compound 74, 1-(4-(3-(6-methoxypyridin-3-yl)-1H-pyrrolo[2,3-b]pyridin-5-yl)benzyl)-N,N-dimethylpiperidin-4-amine]
< 51 nM	COc1ccc(-c2c[nH]c3ncc(-c4ccc(CN5CCCC(O)C5)cc4)cc23)cn1 (single isomer, unassigned; enantiomer 1) [compound 26, 1-(4-(3-(6-methoxypyridin-3-yl)-1H-pyrrolo[2,3-b]pyridin-5-yl)benzyl)piperidin-3-ol Enantiomer 1]
51 to 150 nM	CN1CCc2cc(-c3c[nH]c4ncc(-c5ccc(CN6CCCC(CO)C6)cc5)cc34)ccc2C1 (stereo not drawn) [compound 82, (1-(4-(3-(2-methyl-1,2,3,4-tetrahydroisoquinolin-6-yl)-1H-pyrrolo[2,3-b]pyridin-5-yl)benzyl)piperidin-3-yl)methanol]
151 to 500 nM	CCOC1CN(Cc2ccc(-c3cnc4[nH]cc(-c5ccc(OC)nc5)c4c3)cc2)C1 [compound 36, 5-(4-((3-ethoxyazetidin-1-yl)methyl)phenyl)-3-(6-methoxypyridin-3-yl)-1H-pyrrolo[2,3-b]pyridine]
51 to 150 nM	OC1CCCN(Cc2ccc(-c3cnc4[nH]cc(-c5cncc(F)c5)c4c3)cc2)C1 (stereo not drawn) [compound 22, 1-(4-(3-(5-fluoropyridin-3-yl)-1H-pyrrolo[2,3-b]pyridin-5-yl)benzyl)piperidin-3-ol]
51 to 150 nM	Fc1cccc(-c2c[nH]c3ncc(-c4ccc(CN5C[C@@H]6C[C@H]5CO6)cc4)cc23)c1 [compound 6, (1S,4S)-5-(4-(3-(3-fluorophenyl)-1H-pyrrolo[2,3-b]pyridin-5-yl)benzyl)-2-oxa-5-azabicyclo[2.2.1]heptane]
51 to 150 nM	CC(C)Oc1ccc(-c2c[nH]c3ncc(-c4ccc(CN5CCCC(O)C5)cc4)cc23)cc1C#N (stereo not drawn) [compound 19, 5-(5-(4-((3-hydroxypiperidin-1-yl)methyl)phenyl)-1H-pyrrolo[2,3-b]pyridin-3-yl)-2-isopropoxybenzonitrile]

SMILES	IC50
COc1ccc(-c2c[nH]c3ncc(-c4ccc(CN5CCCC(OC)C5)cc4)cc23)cn1 (single isomer, unassigned; enantiomer 1) [compound 38, 5-(4-((3-methoxypiperidin-1-yl)methyl)phenyl)-3-(6-methoxypyridin-3-yl)-1H-pyrrolo[2,3-b]pyridine Enantiomer 1]	151 to 500 nM
